According to patent publication US20060111423A1, “Use of diindolylmethane-related indoles and growth factor receptor inhibitors for the treatment of human cytomegalovirus-associated disease” (priority 2004, published 2006):

Tests used:
[1] = tested on: TRAMP-C2 prostate cancer cells; assay type: in vivo; conditions: C57BL/6 mice, gavage once daily 5 days per week, 4 weeks
Experimental: METHODS: TRAMP-C2 cells, a mouse PC cell line are obtained from the American Type Culture Collection (Rockville, Md.). Six week old male C57BL/6 mice are purchased from Harlan Laboratories (Harlan, USA). TRAMP-C2 cells are suspended in media and aliquots are injected into the flank of male C57BL/6 mice using a 27 gauge needle. Two weeks after tumor transplantation when tumors appear, mice are divided in six groups treated as indicated:
Animals are dosed by gavage once daily, 5 days per week. Tumor volumes are measured weekly for 4 weeks following transplantation using calipers. Later, the tumors are removed, their final weights and volumes are measured. […] Tumor volumes in mm^2 are determined during the study using the formula π/6×larger diameter×(smaller diameter)^2. The data are expressed as the increase or decrease in tumor volume in mm^3. Histological studies are performed to assess the contribution of apotosis promotion in the reduction of tumor volume in treated groups.

[2] = tested on: Towne strain HCMV; experiment: HCMV titer reduction assay in HEL fibroblasts; assay type: cell-based, Human Cytomegalovirus; conditions: HEL fibroblasts infected with HCMV, supernatant day 6 postinfection, plaque assay
Experimental: Cell culture studies are performed to establish activity of DIM-related indoles alone and in combination with GFR's as inhibitors of HCMV replication in an in vitro model relevant to human infection.
Cell culture and viral infection. Human embryonic lung (HEL) fibroblasts are cultured in Eagle's minimal essential media (EMEM) (Gibco, BRL) supplemented with 10% fetal bovine serum (FBS) plus antibiotics.
Towne strain HCMV (passages 36 to 40) is propagated in HEL fibroblasts as previously described (Kowalik et al., 1993, Proc. Natl. Acad. Sci. USA 90:1107-1111).
For infection, cells are grown to confluence and then are serum starved for 48 h in minimal essential media (MEM) plus antibiotics. Cells are infected with HCMV that had been purified through a sucrose cushion to eliminate cytokines and growth factor contamination. Seeding of cells using a multiplicity of infection of 2-5 PFU per cell is used.
At the indicated time after infection, cells are washed once and then are maintained in MEM plus antibiotics until they are harvested. Cells are pretreated for 1 h with the listed compound or combinations of compounds prior to infection. […]
Titer reduction assay. The levels of active virus during the culture period are determined using a Titer Reduction Assay. […] HCMV plaque numbers are scored under an inverted microscope.

Row | Compound | tumor growth (tumor volumes compared to control group) [1] | viral titers [2]
1 | c1ccc2c(Cc3c[nH]c4ccccc34)c[nH]c2c1 [Diindolylmethane, 3,3′-diindolylmethane] | inhibition of tumor growth | significant decrease
2 | COc1cc2ncnc(Nc3ccc(F)c(Cl)c3)c2cc1OCCCN1CCOCC1 [Gefitinib, N-(3-chloro-4-fluorophenyl)-7-methoxy-6-(3-morpholinopropoxy)quinazolin-4-amine, reference compound] | inhibition of tumor growth | –
